From ChEMBL document CHEMBL1201862, “PubChem BioAssay data set” (2004)
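Five compound concentrations were applied to cells in 96-well plates for 48 hours; endpoints were derived by simple linear interpolation of the resulting dose-response curve. GI50 = concentration required for 50% inhibition of growth.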 Calls of active or inactive are those of the source. Cut-off read from the data, not from the text of the source: active = GI50 up to about 1.1 µM and inactive = higher.

Legend:
Experiment in all cases: NCI anticancer screen, dose series, 48 h
[1] = tested on: NCI-H226
[2] = tested on: NCI-H23
[3] = tested on: M14
[4] = tested on: HCC 2998
[5] = tested on: KM12
[6] = tested on: NCI-H460
[7] = tested on: MOLT-4
[8] = tested on: IGROV-1
[9] = tested on: CCRF-CEM
[10] = tested on: COLO 205
[11] = tested on: OVCAR-5
[12] = tested on: SK-OV-3
[13] = tested on: 786-0
[14] = tested on: LOX IMVI
[15] = tested on: CAKI-1
[16] = tested on: DMS-273
[17] = tested on: SF-539
[18] = tested on: SNB-75

Measured: GI50

COc1ccc(NC(=O)CC/C(CC(=O)c2ccco2)=N/Nc2ccc([N+](=O)[O-])cc2[N+](=O)[O-])cc1
inactive: [1] > 100 µM | [2] 14.3 µM | [3] > 100 µM | [4] > 100 µM | [5] > 100 µM | [6] > 100 µM | [7] 29.3 µM | [8] > 100 µM | [9] 23.7 µM | [10] > 100 µM | [11] > 100 µM | [12] > 100 µM | [13] > 100 µM | [14] 39.7 µM | [15] > 100 µM | [16] 57.7 µM | [17] > 100 µM | [18] > 100 µM

COCCCCCC(=O)CP(=O)(OC)OC
inactive: [1] > 100 µM | [2] > 100 µM | [3] > 100 µM | [4] > 100 µM | [5] > 100 µM | [6] > 100 µM | [7] > 100 µM | [8] > 100 µM | [9] > 100 µM | [10] > 100 µM | [11] > 100 µM | [12] > 100 µM | [13] > 100 µM | [14] > 100 µM | [15] > 100 µM | [16] > 100 µM | [17] > 100 µM | [18] > 100 µM

O=C1c2ccccc2C2(O)Nc3c(ccc4ccccc34)C12O (stereo unspecified)
inactive: [1] > 100 µM | [2] > 100 µM | [3] > 100 µM | [4] > 100 µM | [5] 87.1 µM | [6] > 100 µM | [7] 39 µM | [8] > 100 µM | [9] 55.3 µM | [10] > 100 µM | [11] > 100 µM | [12] > 100 µM | [13] > 100 µM | [14] > 100 µM | [15] > 100 µM | [16] > 100 µM | [17] > 100 µM | [18] > 100 µM

O=C(CCc1nnc2s/c(=C\c3ccccc3)c(=O)n12)Nc1cc(Cl)ccc1Cl
inactive: [1] > 100 µM | [2] > 100 µM | [3] > 100 µM | [4] > 100 µM | [5] > 100 µM | [6] > 100 µM | [7] > 100 µM | [8] > 100 µM | [9] > 100 µM | [10] > 100 µM | [11] > 100 µM | [12] > 100 µM | [13] > 100 µM | [14] > 100 µM | [15] > 100 µM | [16] > 100 µM | [17] > 100 µM | [18] > 100 µM

Cc1cc(Cl)cc2c1NC(=O)C2=O.O=C(c1ccccc1)C(F)(F)F
inactive: [1] > 100 µM | [2] > 100 µM | [3] 67 µM | [4] > 100 µM | [5] 61 µM | [6] 70.5 µM | [7] 20.1 µM | [8] > 100 µM | [9] 17.2 µM | [10] 57.7 µM | [11] > 100 µM | [12] > 100 µM | [13] 70.1 µM | [14] 15.3 µM | [15] 39.3 µM | [16] 50.7 µM | [17] 47.9 µM | [18] 41.1 µM

CC(C)=CCC/C(C)=C/CC/C(C)=C/CC/C=C(\C)CC/C=C(\C)CCC1SC1(C)C (stereo unspecified)
inactive: [1] > 100 µM | [2] > 100 µM | [3] > 100 µM | [4] > 100 µM | [5] > 100 µM | [6] > 100 µM | [7] > 100 µM | [8] > 100 µM | [9] > 100 µM | [10] > 100 µM | [11] > 100 µM | [12] > 100 µM | [13] > 100 µM | [14] > 100 µM | [15] > 100 µM | [16] > 100 µM | [17] > 100 µM | [18] > 100 µM

COC(=O)[C@@H]1C(=O)O[C@@H](c2ccc3c(c2)OCO3)[C@@H]1C(=O)OC.COC(=O)[C@H]1C(=O)O[C@@H](c2ccc3c(c2)OCO3)[C@@H]1C(=O)OC
inactive: [1] > 100 µM | [2] > 100 µM | [3] > 100 µM | [4] > 100 µM | [5] > 100 µM | [6] > 100 µM | [7] > 100 µM | [8] > 100 µM | [9] > 100 µM | [10] > 100 µM | [11] > 100 µM | [12] > 100 µM | [13] > 100 µM | [14] > 100 µM | [15] > 100 µM | [16] > 100 µM | [17] > 100 µM | [18] > 100 µM
